{"source": "patent US11932606B2", "about": "“Anti-cancer/anti-fibrosis compounds” (THE REGENTS OF THE UNIVERSITY OF CALIFORNIA, priority 2017, dated 2024)", "key": {"[1]": {"system": "colorectal cancer cell line SW620", "experiment": "Synergy experiment of Compound 29 and 2DG, cell viability", "format": "cell-based", "procedure": "SW620 cells were plated (96-well) in triplicate at 500 cells per well for testing (n=3) with 5 mM 2-DG and different concentrations of compound 29 (0-10 uM). Medium was changed once on day 3. On day 7, the CellTiter-Glo Luminescent Cell Viability Assay (Promega) was performed to measure the response. For cell viability assay, two independent experiments have been done."}, "MV-4-11 xenograft": {"system": "MV-4-11 xenograft", "experiment": "MV-4-11 mouse xenograft model", "format": "in vivo", "details": "50 mg/kg orally b.i.d., 21 days", "procedure": "40 CR female NCr nu/nu mice (Charles River Laboratories) were injected with 1×10^7 MV-4-11 cells in 50% matrigel s.c. in flank. Cell Injection Volume is 0.1 mL/mouse for MV-4-11 cells. Age of mice at start date is 8 to 12 weeks. Perform a pair match when tumors grow after two weeks and begin treatment. Compound 29 was given orally twice a day for 21 consecutive days. Body weight and tumor size were measured every three days. In the MV-4-11 xenograft model, mice were treated with compound 29 with 50 mg/kg for 21 days (orally, b.i.d). The tumor volume from control and vehicle group were measured, compared. […] Body weights of mice in both groups were measured and plotted."}, "MOLM-14 xenograft": {"system": "MOLM-14 xenograft", "experiment": "MOLM-14 mouse xenograft model", "format": "in vivo", "details": "50 mg/kg orally b.i.d.", "procedure": "40 athymic nude mice (Taconic Biosciences) were injected with 5×10^6 MOLM-14 cells in 50% matrigel s.c. in flank. Cell Injection Volume is 0.2 ml/mouse for MOLM-14. Age of mice at start date is 12-14 weeks. Perform a pair match when tumors grows after two weeks and begin treatment. Compound 29 was dissolved in saline and was given orally twice a day on a schedule of five days on/two days off for three weeks. Body weight and tumor size were measured every other day when mice being treated. After the last administration, mice were euthanized for tumor collection. […] In the MOLM-14 xenograft model, mice were treated with compound 29 at 50 mg/kg for 21 days (orally, b.i.d). The tumor volume from control and vehicle group was measured. […] Body weights of mice in both groups were measured and plotted."}, "CDK19 (inactive)": {"molecular_target": "CDK19 (inactive) (Homo sapiens (Human), UniProt Q9BWU1)", "sequence (Q9BWU1 whole entry)": "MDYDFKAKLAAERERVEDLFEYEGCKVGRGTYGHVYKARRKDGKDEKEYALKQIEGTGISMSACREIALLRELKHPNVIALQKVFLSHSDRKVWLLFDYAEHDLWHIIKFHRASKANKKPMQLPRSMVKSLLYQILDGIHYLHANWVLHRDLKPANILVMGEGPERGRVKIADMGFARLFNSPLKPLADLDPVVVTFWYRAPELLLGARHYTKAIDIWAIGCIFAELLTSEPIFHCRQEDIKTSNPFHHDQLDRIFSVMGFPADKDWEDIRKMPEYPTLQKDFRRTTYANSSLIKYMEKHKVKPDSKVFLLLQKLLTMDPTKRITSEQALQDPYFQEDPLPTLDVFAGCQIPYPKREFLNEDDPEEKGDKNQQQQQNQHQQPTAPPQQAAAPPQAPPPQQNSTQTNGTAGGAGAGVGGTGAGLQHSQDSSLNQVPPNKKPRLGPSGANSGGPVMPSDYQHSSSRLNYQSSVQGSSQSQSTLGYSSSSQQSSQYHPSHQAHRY", "experiment": "CDK19 (inactive) LanthaScreen Eu kinase binding assay", "details": "read-out: IC50 against CDK19", "procedure": "Compounds were screened in 1% DMSO (final) in the well. For 10 point titrations, 3-fold serial dilutions were conducted from the starting concentration.\nThe Bar-coded, low volume, white 384-well plate (Greiner Cat. #784207) were used for the assay. […] Then the Kinase Reaction was incubated at room temperature for 60 minutes. After the 1 hour Kinase Reaction incubation, the plate was read on a fluorescence plate reader (Infinite F500, Tecan Systems Inc, USA) and data was analyzed using XLfit from IDBS. The dose response curve was curve fit to model number 205 (sigmoidal dose-response model)."}, "SET-2": {"system": "SET-2", "experiment": "AML cell viability (CellTiter-Glo, day 7)", "format": "cell-based", "details": "Homo sapiens"}, "BT474": {"system": "BT474", "experiment": "Cell viability assay (CellTiter-Glo, day 7)", "format": "cell-based", "details": "Homo sapiens, BT-474, 168 h; BT474, day 7", "procedure": "(§1) CLL-119, Hela, HCT116, MCF7, Colo205, SW620, H2052, MSTO-211H, U-251, Colo 357, OE33, Huh-7, A549, BT474, A204 and H290 cells were acquired from UCSF Cell and Genome Engineering Core. A549-Brm3 and H2030-Brm3 were from UCSF thoracic oncology lab. All cells were plated (96-well) in triplicate at 500 cells per well for testing (n=3) with compound. Medium was changed once on day 3. On day 7, the CellTiter-Glo Luminescent Cell Viability Assay (Promega) was performed to measure the response. For cell viability assay, two independent experiments have been done."}, "MCF7": {"system": "MCF7", "experiment": "Cell viability assay (CellTiter-Glo, day 7)", "format": "cell-based", "details": "Homo sapiens, 168 h; MCF7, day 7", "procedure": "as §1"}, "H2030-BRM3": {"system": "H2030-BRM3", "experiment": "Cell viability assay (CellTiter-Glo, day 7)", "format": "cell-based", "details": "168 h; H2030-BRM3, day 7", "procedure": "as §1"}, "Hela": {"system": "Hela", "experiment": "Cell viability assay (CellTiter-Glo, day 7)", "format": "cell-based", "details": "Homo sapiens, 168 h", "procedure": "as §1"}, "SW620": {"system": "SW620", "experiment": "Cell viability assay (CellTiter-Glo, day 7)", "format": "cell-based", "details": "Homo sapiens, SW-620, 168 h; SW620, day 7", "procedure": "as §1"}, "CLL-119": {"system": "CLL-119", "experiment": "Cell viability assay (CellTiter-Glo, day 7)", "format": "cell-based", "details": "168 h; CLL-119, day 7", "procedure": "as §1"}, "OE33": {"system": "OE33", "experiment": "Cell viability assay (CellTiter-Glo, day 7)", "format": "cell-based", "details": "Homo sapiens, 168 h; OE33, day 7", "procedure": "as §1"}, "MSTO-211H": {"system": "MSTO-211H", "experiment": "Cell viability assay (CellTiter-Glo, day 7)", "format": "cell-based", "details": "Homo sapiens, 168 h", "procedure": "as §1"}, "Colo205": {"system": "Colo205", "experiment": "Cell viability assay (CellTiter-Glo, day 7)", "format": "cell-based", "details": "Homo sapiens, COLO 205, 168 h; Colo205, day 7", "procedure": "as §1"}, "H290": {"system": "H290", "experiment": "Cell viability assay (CellTiter-Glo, day 7)", "format": "cell-based", "details": "NCI-H290, 168 h; H290, day 7", "procedure": "as §1"}, "HCT116": {"system": "HCT116", "experiment": "Cell viability assay (CellTiter-Glo, day 7)", "format": "cell-based", "details": "Homo sapiens, HCT-116, 168 h; HCT116, day 7", "procedure": "as §1"}, "Huh-7": {"system": "Huh-7", "experiment": "Cell viability assay (CellTiter-Glo, day 7)", "format": "cell-based", "details": "Homo sapiens, 168 h; Huh-7, day 7", "procedure": "as §1"}, "Colo357": {"system": "Colo357", "experiment": "Cell viability assay (CellTiter-Glo, day 7)", "format": "cell-based", "details": "Homo sapiens, 168 h; Colo357, day 7", "procedure": "as §1"}, "U-251": {"system": "U-251", "experiment": "Cell viability assay (CellTiter-Glo, day 7)", "format": "cell-based", "details": "Homo sapiens, 168 h; U-251, day 7", "procedure": "as §1"}, "H2052": {"system": "H2052", "experiment": "Cell viability assay (CellTiter-Glo, day 7)", "format": "cell-based", "details": "Homo sapiens, NCI-H2052, 168 h; H2052, day 7", "procedure": "as §1"}, "A549": {"system": "A549", "experiment": "Cell viability assay (CellTiter-Glo, day 7)", "format": "cell-based", "details": "Homo sapiens, 168 h; A549, day 7", "procedure": "as §1"}, "A204": {"system": "A204", "experiment": "Cell viability assay (CellTiter-Glo, day 7)", "format": "cell-based", "details": "Homo sapiens, 168 h; A204, day 7", "procedure": "as §1"}, "A549-BRM3": {"system": "A549-BRM3", "experiment": "Cell viability assay (CellTiter-Glo, day 7)", "format": "cell-based", "details": "168 h; A549-BRM3, day 7", "procedure": "as §1"}}, "note": "Where two headings read alike, the source gives them in different places.", "data": [{"smiles": "Nc1nccc2c(Br)cc3cc(C(=O)[O-])ccc3c12.[Na+]", "note": "[Compound 29, Sodium 1-amino-5-bromobenzo[h]isoquinoline-8-carboxylate]", "values": [{"measurement": "IC50", "setting": "[1]; Homo sapiens, SW-620, 168 h, SW620, without 2DG, day 7, read-out: Cell viability IC50 of Compound 29 alone", "result": "1000 to 10000", "unit": "nM"}, {"measurement": "Synergy with 2DG in viability assay", "setting": "[1]; SW620, 5 mM 2DG", "result": "synergizes with 2DG"}, {"measurement": "Body weight", "setting": "MV-4-11 xenograft", "result": "didn't suffer from weight loss"}, {"measurement": "Tumor volume vs control group", "setting": "MV-4-11 xenograft; last measurement point", "result": "only about half the size of tumors from the control group"}, {"measurement": "Growth of tumors (tumor volume)", "setting": "MOLM-14 xenograft; 21 days", "result": "greatly inhibited"}, {"measurement": "weight loss", "setting": "MOLM-14 xenograft; during treatment", "result": "< 5", "unit": "%"}, {"measurement": "IC50", "setting": "CDK19 (inactive)", "result": "< 300", "unit": "nM"}, {"measurement": "IC50", "setting": "SET-2; 168 h, SET-2, day 7, read-out: Cell viability IC50", "result": "< 1000", "unit": "nM"}, {"measurement": "IC50", "setting": "SET-2; SET-2, text statement, read-out: potency in cell viability assay", "result": "< 1000", "unit": "nM"}, {"measurement": "IC50", "setting": "BT474", "result": "1000 to 10000", "unit": "nM"}, {"measurement": "IC50", "setting": "MCF7", "result": "1000 to 10000", "unit": "nM"}, {"measurement": "IC50", "setting": "H2030-BRM3", "result": "< 1000", "unit": "nM"}, {"measurement": "IC50", "setting": "Hela", "result": "1000 to 10000", "unit": "nM"}, {"measurement": "IC50", "setting": "SW620", "result": "1000 to 10000", "unit": "nM"}, {"measurement": "IC50", "setting": "CLL-119", "result": "< 1000", "unit": "nM"}, {"measurement": "IC50", "setting": "OE33", "result": "< 1000", "unit": "nM"}, {"measurement": "IC50", "setting": "MSTO-211H", "result": "1000 to 10000", "unit": "nM"}, {"measurement": "IC50", "setting": "Colo205", "result": "< 1000", "unit": "nM"}, {"measurement": "IC50", "setting": "H290", "result": "1000 to 10000", "unit": "nM"}, {"measurement": "IC50", "setting": "HCT116", "result": "1000 to 10000", "unit": "nM"}, {"measurement": "IC50", "setting": "Huh-7", "result": "< 1000", "unit": "nM"}, {"measurement": "IC50", "setting": "Colo357", "result": "1000 to 10000", "unit": "nM"}, {"measurement": "IC50", "setting": "U-251", "result": "1000 to 10000", "unit": "nM"}, {"measurement": "IC50", "setting": "H2052", "result": "1000 to 10000", "unit": "nM"}, {"measurement": "IC50", "setting": "A549", "result": "1000 to 10000", "unit": "nM"}, {"measurement": "IC50", "setting": "A204", "result": "1000 to 10000", "unit": "nM"}, {"measurement": "IC50", "setting": "A549-BRM3", "result": "1000 to 10000", "unit": "nM"}]}]}
